SMILES strings stand for the structures.

Assay [1] concerns the target T1, HCV polymerase 1A (Δ21 NS5B, H77) (Hepatitis C virus genotype 1a, UniProt P27958).
T1 construct: 20 to 50 nM Δ21 NS5B
The assay is described as follows: biochemical. Particulars: IC50 1a. A digest of the protocol: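 Radiometric assay with Δ21 NS5B (H77): 20 μM CTP, 20 μM ATP, 1 μM ^3H-UTP, 5 nM template RNA, 2–4 h at room temperature. RNA precipitated with spermine, filter-captured and counted. IC50 from non-linear fit of retained cpm vs inhibitor concentration (tight-binding equation).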

Assay [2] deals with T2, HCV polymerase 1B (Δ21 NS5B, BK) (Hepatitis C virus genotype 1b, UniProt P26663).
T2 construct: 20 to 50 nM Δ21 NS5B
The assay is described as follows: biochemical. A digest of the protocol: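 Δ21 NS5B (genotype 1b, BK […]) preincubated 15 min RT with inhibitor, 2 mM MnCl2, pH 7.4, 60–125 μM GTP; started with 20 μM CTP/ATP, 1 μM 3H-UTP, 5 nM template RNA, run 2–4 h RT. Spermine-precipitated RNA filter-captured, scintillation counted; IC50 from tight-binding (Morrison) fit.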

Assay [3] deals with genotype 1a-H77 subgenomic replicon cell line. The assay is described as follows: microbe, parasite or virus in culture. It is filed as cell-based, HCV. Particulars: Hepatitis C virus, read-out: EC50 1a.
Assay [4] deals with genotype 1b-Con1 subgenomic replicon cell line. The assay is described as follows: microbe, parasite or virus in culture. The class given is cell-based, HCV. Particulars: Hepatitis C virus, read-out: EC50 1b.

T2 sequence (P26663 2420-2989, stated change not applied): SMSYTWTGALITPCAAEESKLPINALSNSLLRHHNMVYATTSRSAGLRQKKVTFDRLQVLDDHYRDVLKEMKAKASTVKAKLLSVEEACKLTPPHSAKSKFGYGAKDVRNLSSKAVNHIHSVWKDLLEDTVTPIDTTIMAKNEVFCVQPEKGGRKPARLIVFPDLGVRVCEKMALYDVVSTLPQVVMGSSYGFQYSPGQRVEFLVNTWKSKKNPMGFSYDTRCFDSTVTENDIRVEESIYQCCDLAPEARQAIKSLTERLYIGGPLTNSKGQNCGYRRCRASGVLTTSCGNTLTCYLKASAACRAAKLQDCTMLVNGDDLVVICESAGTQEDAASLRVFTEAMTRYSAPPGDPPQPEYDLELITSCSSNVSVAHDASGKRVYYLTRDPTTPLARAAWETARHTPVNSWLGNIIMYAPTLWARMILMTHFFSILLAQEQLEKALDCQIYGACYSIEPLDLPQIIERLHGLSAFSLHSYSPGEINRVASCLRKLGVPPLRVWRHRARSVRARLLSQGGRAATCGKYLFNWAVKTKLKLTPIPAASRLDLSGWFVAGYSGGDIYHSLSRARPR
T1 sequence (P27958 2421-2990, stated change not applied): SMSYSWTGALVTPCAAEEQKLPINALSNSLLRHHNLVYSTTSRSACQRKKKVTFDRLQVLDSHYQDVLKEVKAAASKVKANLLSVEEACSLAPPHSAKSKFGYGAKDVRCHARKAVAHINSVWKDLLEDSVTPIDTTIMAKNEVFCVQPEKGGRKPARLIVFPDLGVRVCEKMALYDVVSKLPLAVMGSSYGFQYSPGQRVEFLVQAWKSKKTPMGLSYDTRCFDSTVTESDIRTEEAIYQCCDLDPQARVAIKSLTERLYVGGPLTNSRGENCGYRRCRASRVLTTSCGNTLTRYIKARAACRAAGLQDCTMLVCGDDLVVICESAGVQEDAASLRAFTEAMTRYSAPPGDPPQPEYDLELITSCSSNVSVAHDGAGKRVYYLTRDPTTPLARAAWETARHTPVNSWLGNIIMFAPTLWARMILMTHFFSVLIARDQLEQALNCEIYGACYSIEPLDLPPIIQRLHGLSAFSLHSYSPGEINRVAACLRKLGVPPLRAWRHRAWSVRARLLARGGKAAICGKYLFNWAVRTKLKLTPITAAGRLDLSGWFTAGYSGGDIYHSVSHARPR

As for `COc1c(-c2ccc3c(CN(C)S(C)(=O)=O)csc3c2)cc(-n2ccc(=O)[nH]c2=O)cc1C(C)(C)C` [IB-L0-2.21, N-((6-(3-tert-butyl-5-(2,4-dioxo-3,4-dihydropyrimidin-1(2H)-yl)-2-methoxyphenyl)benzo[b]thiophen-3-yl)methyl)-N-methylmethanesulfonamide], the IC50 in assay [1] and in assay [2] was 10 to 100 nM each time. Moreover, the EC50 is 100 to 1000 nM in assay [3] and 10 to 100 nM in assay [4].

In the case of `COC(=O)NN=C1CCc2cc(-c3cc(-n4ccc(=O)[nH]c4=O)cc(C(C)(C)C)c3OC)ccc21` [IB-L0-2.24, methyl 2-(5-(3-tert-butyl-5-(2,4-dioxo-3,4-dihydropyrimidin-1(2H)-yl)-2-methoxyphenyl)-2,3-dihydro-1H-inden-1-ylidene)hydrazinecarboxylate], the IC50 in assay [1] and in assay [2] was 10 to 100 nM throughout. For the same compound, the half-maximal effective concentration (EC50) in assay [3] and in assay [4] was 10 to 100 nM in each case.

Turning to `COc1c(-c2ccc3c(c2)CCC3(C)CNS(C)(=O)=O)cc(-n2ccc(=O)[nH]c2=O)cc1C(C)(C)C` (centres unmarked) [IB-L0-2.25, N-((5-(3-tert-butyl-5-(2,4-dioxo-3,4-dihydropyrimidin-1(2H)-yl)-2-methoxyphenyl)-1-methyl-2,3-dihydro-1H-inden-1-yl)methyl)methanesulfonamide], the IC50 in assay [1] and in assay [2] was 10 to 100 nM in each case. Also, the values for the EC50 in assay [3] and in assay [4] were 100 to 1000 nM and 10 to 100 nM, respectively.

On to `COc1c(-c2ccc3c(c2)CCC3C(C)(C)NS(C)(=O)=O)cc(-n2ccc(=O)[nH]c2=O)cc1C(C)(C)C` (centres unmarked) [IB-L0-2.29, N-(2-(5-(3-tert-butyl-5-(2,4-dioxo-3,4-dihydropyrimidin-1(2H)-yl)-2-methoxyphenyl)-2,3-dihydro-1H-inden-1-yl)propan-2-yl)methanesulfonamide], for which the IC50 in assay [1] and in assay [2] was 10 to 100 nM throughout. Further, the concentration for a half-maximal effect (EC50) was in the range of 100 to 1000 nM in assay [3] and 10 to 100 nM in assay [4].

As for `COc1c(-c2ccc3c(c2)CCC3NNS(C)(=O)=O)cc(-n2ccc(=O)[nH]c2=O)cc1C(C)(C)C` (centres unmarked) [IB-L0-2.31, N′-(5-(3-tert-butyl-5-(2,4-dioxo-3,4-dihydropyrimidin-1(2H)-yl)-2-methoxyphenyl)-2,3-dihydro-1H-inden-1-yl)methanesulfonohydrazide], the IC50 in assay [1] and in assay [2] was 10 to 100 nM in each case. The EC50 was in the range of 100 to 1000 nM in assay [3] and 10 to 100 nM in assay [4].

`COc1c(-c2ccc3c(c2)CCC3C(=O)NS(C)(=O)=O)cc(-n2ccc(=O)[nH]c2=O)cc1C(C)(C)C` (centres unmarked) [IB-L0-2.34, 5-(3-tert-butyl-5-(2,4-dioxo-3,4-dihydropyrimidin-1(2H)-yl)-2-methoxyphenyl)-N-(methylsulfonyl)-2,3-dihydro-1H-indene-1-carboxamide]: the 50% inhibitory concentration (IC50) in assay [1] and in assay [2] was 10 to 100 nM each time. Besides, the figures for the half-maximal effective concentration (EC50) in assay [3] and in assay [4] were greater than 1000 nM and 100 to 1000 nM, respectively.

In the case of `CC(C)(C)c1cc(-n2ccc(=O)[nH]c2=O)cc(-c2ccc3c(CNS(C)(=O)=O)csc3c2)c1Cl` [IB-L0-2.35, N-((6-(3-tert-butyl-2-chloro-5-(2,4-dioxo-3,4-dihydropyrimidin-1(2H)-yl)phenyl)benzo[b]thiophen-3-yl)methyl)methanesulfonamide], the 50% inhibitory concentration (IC50) in assay [1] and in assay [2] was 10 to 100 nM in each case. Besides, the EC50 in assay [3] was greater than 1000 nM; in assay [4], 100 to 1000 nM.

Regarding `COc1c(-c2ccc3c(c2)CCC3O)cc(-n2ccc(=O)[nH]c2=O)cc1C(C)(C)C` (centres unmarked) [IB-L0-2.36, 1-(3-tert-butyl-5-(1-hydroxy-2,3-dihydro-1H-inden-5-yl)-4-methoxyphenyl)pyrimidine-2,4(1H,3H)-dione], the IC50 is 10 to 100 nM in assay [1] and 100 to 1000 nM in assay [2]. The half-maximal effective concentration (EC50) in assay [3] is 100 to 1000 nM; in assay [4] it was 10 to 100 nM.

As to `COc1c(-c2ccc3cc(CNS(C)(=O)=O)sc3c2)cc(-n2ccc(=O)[nH]c2=O)cc1C(C)(C)C` [IB-L0-2.40, N-((6-(3-tert-butyl-5-(2,4-dioxo-3,4-dihydropyrimidin-1(2H)-yl)-2-methoxyphenyl)benzo[b]thiophen-2-yl)methyl)methanesulfonamide], the half-inhibitory concentration (IC50) in assay [1] and in assay [2] was 100 to 1000 nM each time. The concentration for a half-maximal effect (EC50) is greater than 1000 nM in assay [3] and 100 to 1000 nM in assay [4].

For the compound `COc1c(-c2ccc3c(c2)CCC3NS(C)(=O)=O)cc(-n2ccc(=O)[nH]c2=O)cc1C(C)(C)C` (centres unmarked) [IB-L0-2.44, N-(5-(3-tert-butyl-5-(2,4-dioxo-3,4-dihydropyrimidin-1(2H)-yl)-2-methoxyphenyl)-2,3-dihydro-1H-inden-1-yl)methanesulfonamide], the IC50 in assay [1] and in assay [2] was 100 to 1000 nM throughout. The EC50 in assay [3] and in assay [4] was greater than 1000 nM each time.

`COc1c(-c2ccc3c(c2)CCC3=O)cc(-n2ccc(=O)[nH]c2=O)cc1C(C)(C)C` [IB-L0-2.50, 1-(3-tert-butyl-4-methoxy-5-(1-oxo-2,3-dihydro-1H-inden-5-yl)phenyl)pyrimidine-2,4(1H,3H)-dione]: the IC50 in assay [1] and in assay [2] was 10 to 100 nM each time. The EC50 in assay [3] and in assay [4] was 100 to 1000 nM in each case.

In the case of `COc1c(-c2ccsc2)cc(-n2ccc(=O)[nH]c2=O)cc1-c1ccc2c(c1)CC=C2CNS(C)(=O)=O` [IB-L0-2.62, N-((6-(5-(2,4-dioxo-3,4-dihydropyrimidin-1(2H)-yl)-2-methoxy-3-(thiophen-3-yl)phenyl)-1H-inden-3-yl)methyl)methanesulfonamide], the concentration for half-maximal inhibition (IC50) in assay [1] and in assay [2] was 10 to 100 nM throughout. Also, the concentration giving a half-maximal response (EC50) in assay [3] was 100 to 1000 nM; in assay [4] it was 10 to 100 nM.

As to `COc1c(-c2ccc3c(c2)CC=C3CNS(C)(=O)=O)cc(-n2ccc(=O)[nH]c2=O)cc1-c1cccs1` [IB-L0-2.63, N-((6-(5-(2,4-dioxo-3,4-dihydropyrimidin-1(2H)-yl)-2-methoxy-3-(thiophen-2-yl)phenyl)-1H-inden-3-yl)methyl)methanesulfonamide], the half-inhibitory concentration (IC50) in assay [1] and in assay [2] was 10 to 100 nM throughout. Also, the 50% effective concentration (EC50) fell in the range of 100 to 1000 nM in assay [3] and 10 to 100 nM in assay [4].

`COc1c(-c2ccc3c(c2)CC=C3CNS(C)(=O)=O)cc(-n2ccc(=O)[nH]c2=O)cc1-c1ccco1` [IB-L0-2.65, N-((6-(5-(2,4-dioxo-3,4-dihydropyrimidin-1(2H)-yl)-3-(furan-2-yl)-2-methoxyphenyl)-1H-inden-3-yl)methyl)methanesulfonamide]: the IC50 in assay [1] was 10 to 100 nM; in assay [2], less than 10 nM. The EC50 in assay [3] lay within 100 to 1000 nM; in assay [4], 10 to 100 nM.

Take `COc1c(-c2ccoc2)cc(-n2ccc(=O)[nH]c2=O)cc1-c1ccc2c(c1)CC=C2CNS(C)(=O)=O` [IB-L0-2.67, N-((6-(5-(2,4-dioxo-3,4-dihydropyrimidin-1(2H)-yl)-3-(furan-3-yl)-2-methoxyphenyl)-1H-inden-3-yl)methyl)methanesulfonamide]: the IC50 in assay [1] and in assay [2] was 10 to 100 nM throughout. The figures for the concentration for a half-maximal effect (EC50) in assay [3] and in assay [4] were 100 to 1000 nM and 10 to 100 nM, respectively.

For the compound `COc1c(C#Cc2ccc(NS(C)(=O)=O)cc2C)cc(-n2ccc(=O)[nH]c2=O)cc1C(C)(C)C` [IB-L2-1.1, N-(4-((3-tert-butyl-5-(2,4-dioxo-3,4-dihydropyrimidin-1(2H)-yl)-2-methoxyphenyl)ethynyl)-3-methylphenyl)methanesulfonamide], the values for the IC50 in assay [1] and in assay [2] were less than 10 nM and 10 to 100 nM, respectively. Also, the EC50 in assay [3] and in assay [4] was less than 10 nM in each case.

For `COc1c(C#Cc2cc(F)c(NS(C)(=O)=O)cc2C)cc(-n2ccc(=O)[nH]c2=O)cc1C(C)(C)C` [IB-L2-1.3, N-(4-((3-tert-butyl-5-(2,4-dioxo-3,4-dihydropyrimidin-1(2H)-yl)-2-methoxyphenyl)ethynyl)-2-fluoro-5-methylphenyl)methanesulfonamide], the IC50 is less than 10 nM in assay [1] and 10 to 100 nM in assay [2]. The concentration for a half-maximal effect (EC50) in assay [3] is 10 to 100 nM; in assay [4] it was less than 10 nM.

`COc1c(C#Cc2cc(F)c(NS(C)(=O)=O)cc2C(F)(F)F)cc(-n2ccc(=O)[nH]c2=O)cc1C(C)(C)C` [IB-L2-1.5, N-(4-((3-tert-butyl-5-(2,4-dioxo-3,4-dihydropyrimidin-1(2H)-yl)-2-methoxyphenyl)ethynyl)-2-fluoro-5-(trifluoromethyl)phenyl)methanesulfonamide]: the half-maximal inhibitory concentration (IC50) in assay [1] and in assay [2] was 10 to 100 nM each time. Besides, the EC50 in assay [3] fell in the range of 100 to 1000 nM; in assay [4] it was 10 to 100 nM.

On to `COc1c(C#Cc2ccc(NS(C)(=O)=O)cc2O)cc(-n2ccc(=O)[nH]c2=O)cc1C(C)(C)C` [IB-L2-1.6, N-(4-((3-tert-butyl-5-(2,4-dioxo-3,4-dihydropyrimidin-1(2H)-yl)-2-methoxyphenyl)ethynyl)-3-hydroxyphenyl)fmethanesulfonamide], for which the concentration for half-maximal inhibition (IC50) is less than 10 nM in assay [1] and 10 to 100 nM in assay [2]. Moreover, the values for the EC50 in assay [3] and in assay [4] were 10 to 100 nM and less than 10 nM, respectively.

`COc1c(C#Cc2ccc(NS(C)(=O)=O)cn2)cc(-n2ccc(=O)[nH]c2=O)cc1C(C)(C)C` [IB-L2-1.8, N-(6-((3-tert-butyl-5-(2,4-dioxo-3,4-dihydropyrimidin-1(2H)-yl)-2-methoxyphenyl)ethynyl)-pyridin-3-yl)methanesulfonamide]: the IC50 in assay [1] is less than 10 nM; in assay [2] it was 10 to 100 nM. The figures for the EC50 in assay [3] and in assay [4] were 10 to 100 nM and less than 10 nM, respectively.

(Values after US8415351B2 (priority 2007, dated 2013).)
